This note sets out measurements from patent publication US9580390B2, “Indazole compounds as kinase inhibitors and method of treating cancer with same” (University Health Network, priority 2011, dated 2017).

One test deals with T1, human TTK (Homo sapiens, UniProt P33981).
T1 construct: amino terminal GST fusion of full length human TTK; purchased Invitrogen
T1 sequence (P33981 1-857): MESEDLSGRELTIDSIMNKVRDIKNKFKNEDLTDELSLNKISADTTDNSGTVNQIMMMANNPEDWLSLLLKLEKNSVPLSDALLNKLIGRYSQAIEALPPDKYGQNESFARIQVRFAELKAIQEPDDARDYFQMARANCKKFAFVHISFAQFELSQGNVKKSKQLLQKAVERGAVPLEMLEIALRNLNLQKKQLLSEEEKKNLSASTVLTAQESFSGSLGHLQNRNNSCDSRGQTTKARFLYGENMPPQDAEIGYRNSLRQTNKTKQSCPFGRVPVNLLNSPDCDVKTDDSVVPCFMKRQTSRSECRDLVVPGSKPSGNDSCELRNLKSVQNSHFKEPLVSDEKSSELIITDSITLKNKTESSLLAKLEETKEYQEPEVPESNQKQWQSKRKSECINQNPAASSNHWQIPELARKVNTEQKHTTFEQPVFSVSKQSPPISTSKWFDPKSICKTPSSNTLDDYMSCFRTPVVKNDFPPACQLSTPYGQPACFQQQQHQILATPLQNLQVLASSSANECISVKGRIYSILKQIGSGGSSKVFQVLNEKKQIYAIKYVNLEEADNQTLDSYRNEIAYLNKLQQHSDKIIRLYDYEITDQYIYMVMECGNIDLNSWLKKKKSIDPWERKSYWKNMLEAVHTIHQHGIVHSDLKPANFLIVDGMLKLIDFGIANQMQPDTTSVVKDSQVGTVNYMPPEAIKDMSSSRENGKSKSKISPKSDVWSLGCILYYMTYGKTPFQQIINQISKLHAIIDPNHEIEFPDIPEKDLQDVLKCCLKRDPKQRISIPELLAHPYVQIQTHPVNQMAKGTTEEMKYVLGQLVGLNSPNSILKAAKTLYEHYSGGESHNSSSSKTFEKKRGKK
In words: TTK inhibition assay (indirect ELISA). To be noted: read-out: TTK IC50 Range. The class given is biochemical.

A further test has as its system Breast cancer cells. In words: Cancer cell line growth inhibition (SRB assay). The class given is cell-based. Particulars: Homo sapiens; MDA-MB-468; read-out: Cancer Cell Line GI50 Range MDA-MB-468.
The subject of test [1] is ovarian cancer cells (PA-1). In words: Cancer cell line growth inhibition (SRB assay). The class given is cell-based. Particulars: Homo sapiens, PA-1; read-out: Cancer Cell Line GI50 Range PA-1.
Test [2] relates to colon cancer cells (HCT116). In words: Cancer cell line growth inhibition (SRB assay). The class given is cell-based. To be noted: Homo sapiens, HCT-116; read-out: Cancer Cell Line GI50 Range HCT116.
Experimental: Breast cancer cells (MDA-MB-231), colon cancer cells (HCT116) and ovarian cancer cells (PA-1) were seeded (1000 to 4000 in 80 μl per well depending on the cell growth rate) into 96 well plates 24 hours before compound overlay. Compounds were prepared as 10 mM stock solutions in 100% DMSO which were diluted with DMEM (Dulbecco's Modified Eagle's Medium) cell growth Medium (Invitrogen, Burlington, ON, Canada) containing 10% FBS (Fetal Bovine Serum) to concentrations ranging from 50 nM to 250 μM. Aliquots (20 μl) from each concentration were overlaid to 80 μl of the pre-seeded cells in the 96 well plates to make final concentrations of 10 nM to 50 μM. The cells were cultured for 5 days before the Sulforhodamine B assay (SRB) was performed to determine the compound's cell growth inhibition activity.
Sulforhodamine B (purchased from Sigma, Oakville, ON, Canada) is a water-soluble dye that binds to the basic amino acids of the cellular proteins. Thus, colorimetric measurement of the bound dye provides an estimate of the total protein mass that is related to the cell number. the cells are fixed in situ by gently aspirating off the culture media and adding 50 μl ice cold 10% Trichloroacetic Acid (TCA) per well and incubate at 4° C. for 30-60 min. The plates are washed with H2O five times and allowed to air dry for 5 min. Addition of 50 μl 0.4% (w/v) SRB solution in 1% (v/v) acetic acid to each well and incubation for 30 min at RT completes the staining reaction. Following staining, plates are washed four times with 1% acetic acid to remove unbound dye and then allowed to air dry for 5 min. The stain is solubilized with 100 μl of 10 mM Tris pH 10.5 per well. Absorbance is read at 570 nm.
The percentage (%) of relative growth inhibition was calculated by comparing to DMSO treated only cells (100%). GI50's were determined for compounds with cytotoxic activity. The GI50 was calculated using GraphPad PRISM software (GraphPad Software, Inc., San Diego, Calif., USA).

pIC50: −log10 of the molar value. A value given as a limit tells only on which side of the number the result lay.

Take `CN1CCC(=O)c2cc(-c3n[nH]c4ccc(C(=O)N[C@H](c5ccccn5)C5CCCC5)cc34)ccc21` [Example A242, (S)-N-(cyclopentyl(pyridin-2-yl)methyl)-3-(1-methyl-4-oxo-1,2,3,4-tetrahydroquinolin-6-yl)-1H-indazole-5-carboxamide]: on human TTK, the pIC50 was over 7.00. Moreover, the concentration for 50% growth inhibition (GI50) is over 500 nM in the test on Breast cancer cells, 100 to 500 nM in test [1] and over 500 nM in test [2].
For `CN1CCC(CO)(Cc2ccc(-c3n[nH]c4ccc(C(=O)NCC5(N6CCOCC6)CCCCC5)cc34)cc2)CC1` [Example A486, 3-(4-((4-(hydroxylmethyl)-1-methylpiperidin-4-yl)methyl)phenyl)-N-((1-morpholinocyclohexyl)methyl)-1H-indazole-5-carboxamide], the negative logarithm of the IC50 (pIC50) on human TTK is over 7.00. For the same molecule, the figures for the GI50 (in the test on Breast cancer cells; in test [1]; in test [2]) were over 500 nM, 100 to 500 nM and 100 to 500 nM, respectively.
Consider `CN1CCC2(CC1)CC(=O)c1cc(-c3n[nH]c4ccc(C(=O)N[C@H](c5ccccc5)C5CC5)cc34)ccc1O2` [Example A251, (S)-N-(cyclopropyl(phenyl)methyl)-3-(1′-methyl-4-oxospiro[chroman-2,4′-piperidin]-6-yl)-1H-indazole-5-carboxamide], for which, at human TTK, the pIC50 is over 7.00. For the same molecule, the GI50 (with Breast cancer cells; in test [1]; in test [2]) was 100 to 500 nM in each case.
Take `O=C(NCC1(N2CCOCC2)CCCCC1)c1ccc2[nH]nc(-c3ccc(O[C@H]4C[C@H]5CC[C@@H](C4)N5C4COC4)cc3)c2c1` [Example A507, N-((1-morpholinocyclohexyl)methyl)-3-(4-(((1R,3R,5S)-8-(oxetan-3-yl)-8-azabicyclo[3.2.1]octan-3-yl)oxy)phenyl)-1H-indazole-5-carboxamide]: the negative-log IC50 (pIC50) at human TTK was over 7.00. In addition, the concentration for 50% growth inhibition (GI50) (with Breast cancer cells; in test [1]; in test [2]) was 100 to 500 nM in each case.
Consider `CN1[C@@H]2CC[C@H]1C[C@@H](Oc1ccc(-c3n[nH]c4ccc(C(=O)NC(c5ccccc5Cl)C5CCCC5)cc34)cc1)C2` (stereo partly drawn) [Example A284, N-((2-chlorophenyl)(cyclopentyl)methyl)-3-(4-(((1R,3R,5S)-8-methyl-8-azabicyclo[3.2.1]octan-3-yl)oxy)phenyl)-1H-indazole-5-carboxamide], for which, at human TTK, the pIC50 was over 7.00. For the same molecule, the GI50 (with Breast cancer cells; in test [1]; in test [2]) was 100 to 500 nM throughout.
Take `O=CN1[C@@H]2CC[C@H]1C[C@@H](Oc1ccc(-c3n[nH]c4ccc(C(=O)NC(c5ccccc5)C5CCC5)cc34)cc1)C2` (stereo partly drawn) [Example A346, N-(cyclobutyl(phenyl)methyl)-3-(4-(((1R,3R,5S)-8-formyl-8-azabicyclo[3.2.1]octan-3-yl)oxy)phenyl)-1H-indazole-5-carboxamide]: the negative logarithm of the IC50 (pIC50) at human TTK was over 7.00. The concentration for 50% growth inhibition (GI50) (with Breast cancer cells; in test [1]; in test [2]) was 100 to 500 nM each time.
For the molecule `CN1C2CCC1CC(Oc1ccc(-c3n[nH]c4ccc(C(=O)N[C@@H](c5ccccn5)C5CC5)cc34)cc1)C2` (stereo partly drawn) [Example A380, N-((R)-cyclopropyl(pyridin-2-yl)methyl)-3-(4-(((1R,3R,5S)-8-methyl-8-azabicyclo[3.2.1]octan-3-yl)oxy)phenyl)-1H-indazole-5-carboxamide], the pIC50 on human TTK is over 7.00. Further, the figures for the GI50 (in the test with Breast cancer cells; in test [1]; in test [2]) were 100 to 500 nM, under 100 nM and under 100 nM, respectively.
In the case of `O=C(N[C@H](c1ccccn1)C1CC1)c1ccc2[nH]nc(-c3ccc4c(c3)C(=O)CCO4)c2c1` [Example A241], on human TTK, the pIC50 is over 7.00. Moreover, the GI50 (with Breast cancer cells; in test [1]; in test [2]) was over 500 nM throughout.
Regarding `CC(C)[C@H](NC(=O)c1ccc2[nH]nc(-c3ccc(C4CCN(C5COC5)CC4)cc3)c2c1)c1ccccc1Cl` [Example A406, (S)-N-(1-(2-chlorophenyl)-2-methylpropyl)-3-(4-(4-(oxelan-3-yl)piperidin-1-yl)phenyl)-1H-indazole-5-carboxamide], the pIC50 on human TTK was over 7.00. Also, the 50% growth inhibitory concentration (GI50) (in the test on Breast cancer cells; in test [1]; in test [2]) was over 500 nM throughout.
On to `CC(C)[C@@H](NC(=O)c1ccc2[nH]nc(-c3ccc(N4CCN(C5COC5)CC4)cc3)c2c1)c1ccccc1Cl` [Example A412, (R)-N-(1-(2-chlorophenyl)-2-methylpropyl)-3-(4-(4-(oxetan-3-yl)piperazin-1-yl)phenyl)-1H-indazole-5-carboxamide], for which the negative-log IC50 (pIC50) on human TTK is over 7.00. The 50% growth inhibitory concentration (GI50) in the test with Breast cancer cells was 100 to 500 nM; in test [1] it was under 100 nM; in test [2] it was under 100 nM.
For the molecule `CN1CCN(C2(CNC(=O)c3ccc4[nH]nc(-c5ccc(N6CCOCC6)cc5)c4c3)CCCC2)CC1` [Example A467, N-((1-(4-methylpiperazin-1-yl)cyclopentyl)methyl)-3-(4-morpholinophenyl)-1H-indazole-5-carboxamide], on human TTK, the pIC50 is 6.30 to 7.00. Further, the GI50 (with Breast cancer cells; in test [1]; in test [2]) was over 500 nM throughout.
Take `CCC(CC)(CNC(=O)c1ccc2[nH]nc(-c3ccc(N4CCN(C)CC4)cc3)c2c1)c1ccccc1` [Example A441, N-(2-ethyl-2-phenylbutyl)-3-(4-(4-methylpiperazin-1-yl)phenyl)-1H-indazole-5-carboxamide]: the negative-log IC50 (pIC50) on human TTK is over 7.00. For the same molecule, the concentration for 50% growth inhibition (GI50) (in the test with Breast cancer cells; in test [1]; in test [2]) was 100 to 500 nM in each case.
For the molecule `O=C(N[C@@H](c1ccccc1F)C1CC1)c1ccc2[nH]nc(-c3ccc(N4CCN(C5COC5)CC4)cc3)c2c1` [Example A270, (R)-N-(cyclopropyl(2-fluorophenyl)methyl)-3-(4-(4-(oxelan-3-yl)piperazin-1-yl)phenyl)-1H-indazole-5-carboxamide], the negative logarithm of the IC50 (pIC50) at human TTK was over 7.00. Also, the results for the concentration for 50% growth inhibition (GI50) (with Breast cancer cells; in test [1]; in test [2]) were 100 to 500 nM, under 100 nM and under 100 nM, respectively.
On to `CN1CCC(CNC(=O)c2ccc3[nH]nc(-c4ccc(N5[C@@H]6CC[C@H]5COC6)cc4)c3c2)(c2ccccc2)CC1` [Example A468, 3-(4-((1R,5S)-3-oxa-8-azabicyclo[3.2.1]octan-8-yl)phenyl)-N-((1-methyl-4-phenylpiperidin-4-yl)methyl)-1H-indazole-5-carboxamide], for which the pIC50 on human TTK is over 7.00. Also, the concentration for 50% growth inhibition (GI50) is over 500 nM in the test on Breast cancer cells, 100 to 500 nM in test [1] and 100 to 500 nM in test [2].
With `CN1CCC(Oc2ccc(-c3n[nH]c4ccc(C(=O)NC(c5ccccn5)C5CCCCC5)cc34)cc2)CC1` (stereo not drawn) [Example A409, N-(cyclohexyl(pyridin-2-yl)methyl)-3-(4-((1-methylpiperidin-4-yl)oxy)phenyl)-1H-indazole-5-carboxamide], on human TTK, the pIC50 is over 7.00. Also, the GI50 (in the test with Breast cancer cells; in test [1]; in test [2]) was 100 to 500 nM throughout.
For `CC(C)(O)CN1CCC(Oc2ccc(-c3n[nH]c4ccc(C(=O)N[C@H](c5ccsc5)C5CC5)cc34)cc2)CC1` [Example A218, (S)-N-(cyclopropyl(thiophen-3-yl)methyl)-3-(4-((1-(2-hydroxy-2-methylpropyl)piperidin-4-yl)oxy)phenyl)-1H-indazole-5-carboxamide], at human TTK, the pIC50 was over 7.00. The concentration for 50% growth inhibition (GI50) (in the test on Breast cancer cells; in test [1]; in test [2]) was 100 to 500 nM throughout.
Regarding `O=C(N[C@H](c1ccccn1)C1CC1)c1ccc2[nH]nc(-c3ccc(OC4CCN(C[C@@H](O)C(F)(F)F)CC4)cc3)c2c1` [Example A225, N-((S)-cyclopropyl(pyridin-2-yl)methyl)-3-(4-((1-((R)-3,3,3-trifluoro-2-hydroxypropyl)piperidin-4-yl)oxy)phenyl)-1H-indazole-5-carboxamide], the negative logarithm of the IC50 (pIC50) on human TTK was over 7.00. The GI50 with Breast cancer cells was 100 to 500 nM; in test [1], under 100 nM; in test [2], under 100 nM.
For the molecule `O=C(N[C@@H](c1ccccn1)C1CCCC1)c1ccc2[nH]nc(-c3ccc(N4C5COCC4CC(O)C5)cc3)c2c1` (stereo partly drawn) [Example A425, N-((R)-cyclopentyl(pyridin-2-yl)methyl)-3-(4-((1R,5S,7R)-7-hydroxy-3-oxa-9-azabicyclo[3.3.1]nonan-9-yl)phenyl)-1H-indazole-5-carboxamide], on human TTK, the pIC50 is over 7.00. Besides, the concentration for 50% growth inhibition (GI50) (in the test on Breast cancer cells; in test [1]; in test [2]) was under 100 nM throughout.
